Experimental findings from patent US8207172B2 (Bayer Intellectual Property GmbH, priority 2004, dated 2012) are described below.

Test [1] concerns A431 cells (human epidermoid carcinoma). Briefly: In vitro tumor cell proliferation assay (Cell Titer-Glo luminescent cell viability), A431. It is filed as cell-based. The settings on record: A-431, 72 h, 72 hours of drug exposure, ATP luminescence readout, read-out: IC50, anti-proliferative activity (inhibition of cell proliferation). An outline of the steps: (§1)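 CellTiter-Glo luminescence (ATP content of metabolically active cells) after 72 h compound exposure at 37° C gave IC50s.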
In general terms: ATP-based viability assays read luminescence as a measure of living cells.

Test [2] relates to BT474 (human breast carcinoma). Description: In vitro tumor cell proliferation assay (Cell Titer-Glo luminescent cell viability), BT474. It is filed as cell-based. To be noted: BT-474, 72 h, BT474 cells, 72 hours of drug exposure, ATP luminescence readout, read-out: IC50, anti-proliferative activity (inhibition of cell proliferation). An outline of the steps:
as §1

SMILES strings stand for the structures. Where a name gives a salt, the structure may show the parent alone.

In the case of `CN1CCN(CCn2cc3c(n2)CCc2c-3sc3ncnc(Nc4ccc(Oc5cccnc5)c(F)c4)c23)CC1` [Example 343, N-[3-fluoro-4-(pyridin-3-yloxy)phenyl]-2-[2-(4-methylpiperazin-1-yl)ethyl]-4,5-dihydro-2H-pyrimido[5′,4′:4,5]thieno[2,3-e]indazol-6-amine], the IC50 in test [1] was not above 50 µM; in test [2] it was not above 5 µM.

As to `CN1CCN(CCn2cc3c(n2)CCc2c-3sc3ncnc(Nc4cc(Cl)c(Cl)cc4F)c23)CC1` [Example 344, N-(4,5-dichloro-2-fluorophenyl)-2-[2-(4-methylpiperazin-1-yl)ethyl]-4,5-dihydro-2H-pyrimido[5′,4′:4,5]thieno[2,3-e]indazol-6-amine trifluoroacetate], the IC50 in test [1] and in test [2] was not above 5 µM each time.
